# Data: ChEMBL document CHEMBL6177948, “Discovery of potential Leonurine-based therapeutic lead MJ210 attenuates Parkinson's disease pathogenesis via NF-κB and MAPK pathways: Mechanistic insights from in vitro and in vivo rotenone models” (Eur J Med Chem, 2025)
# Calls of active or inactive are those of the source. No cut-off for these calls is given here.
# Key:
# SH-SY5Y [1] = experiment: Neuroprotective activity against rotenone-induced mitochondrial ROS generation in human SH-SY5Y cells assessed as decrease in ROS level at 5 uM preincubated with compound for 24 hrs followed by rotenone addition and measured after 24 hrs by Mito Tracker staining based fluorescence microscopic analysis; type: functional, cell-based; settings: time 48.0 hrs
# SH-SY5Y [2] = experiment: Neuroprotective activity against rotenone-induced ROS formation in human SH-SY5Y cells assessed as reduction in ROS level by measuring fluorescence intensity at 5 uM preincubated with compound for 24 hrs followed by rotenone addition and measured after 24 hrs by CellRox reagent based fluorescence microscopic analysis; type: functional, cell-based; settings: time 48.0 hrs
# SH-SY5Y [3] = experiment: Neuroprotective activity against rotenone-induced mitochondrial morphological changes in human SH-SY5Y cells assessed as filamentous mitochondrial shape at 5 uM preincubated with compound for 24 hrs followed by rotenone addition and measured after 24 hrs by Mito Tracker staining based fluorescence microscopic analysis; type: functional, cell-based; settings: time 48.0 hrs
# SH-SY5Y [4] = experiment: Reversal of rotenone-induced mitochondrial membrane depolarization in human SH-SY5Y cells assessed as increase in aggregates fluorescence intensity at 5 uM preincubated with compound for 24 hrs followed by rotenone addition and measured after 24 hrs by JC-10 based fluorescence microscopic analysis; type: functional, cell-based; settings: time 48.0 hrs
# Rattus norvegicus [5] = experiment: Anti-parkinson activity in rotenone-induced male Wistar rat model assessed as increase in TH expression in substantia nigra at 5 to 10 mg/kg, ip pretreated with compound every alternative days followed by rotenone addition and measured after 42 days by Western blotting analysis; type: functional, organism-based; settings: dose 5-10 mg/kg, time 42.0 day
# Rattus norvegicus [6] = experiment: Anti-parkinson activity in rotenone-induced male Wistar rat model assessed as increase in TH expression in substantia nigra at 1 mg/kg, ip pretreated with compound every alternative days followed by rotenone addition and measured after 42 days by Western blotting analysis; type: functional, organism-based; settings: time 42.0 day
# Rattus norvegicus [7] = experiment: Anti-parkinson activity in rotenone-induced male Wistar rat model assessed as prevention of rotenone-induced dopaminergic neuronal death at 5 mg/kg, ip by immunoblotting analysis; type: functional, organism-based
# Rattus norvegicus [8] = experiment: Anti-parkinson activity in rotenone-induced male Wistar rat model assessed as increase DAT expression in substantia nigra at 5 mg/kg, ip pretreated with compound every alternative days followed by rotenone addition and measured after 42 days by Western blotting analysis; type: functional, organism-based; settings: time 42.0 day
# Rattus norvegicus [9] = experiment: Anti-parkinson activity in rotenone-induced male Wistar rat model assessed as improvement in t-turn metrics at 5 mg/kg, ip pretreated with compound every alternative days followed by rotenone addition and measured after 42 days by pole test; type: functional, organism-based; settings: time 42.0 day
# Rattus norvegicus [10] = experiment: Anti-parkinson activity in rotenone-induced male Wistar rat model assessed as reduction in climbing time at 5 mg/kg, ip pretreated with compound every alternative days followed by rotenone addition and measured after 42 days by pole test; type: functional, organism-based; settings: time 42.0 day
# Rattus norvegicus [11] = experiment: Improvement in rotenone-induced depression-like behavior in male Wistar rat model assessed as improvement in sucrose intake at 5 mg/kg, ip pretreated with compound every alternative days followed by rotenone addition and measured after 42 days by sucrose preference test; type: functional, organism-based; settings: time 42.0 day
# Rattus norvegicus [12] = experiment: Anti-parkinson activity in rotenone-induced neurodegeneration in male Wistar rat model assessed as minimal neuronal loss in substantia nigra at 5 mg/kg, ip pretreated with compound every alternative days followed by rotenone addition and measured after 42 days by H and E staining based analysis; type: functional, organism-based; settings: time 42.0 day
# Rattus norvegicus [13] = experiment: Anti-parkinson activity in rotenone-induced neurodegeneration in male Wistar rat model assessed as reduced edema in striatum at 5 mg/kg, ip pretreated with compound every alternative days followed by rotenone addition and measured after 42 days by H and E staining based analysis; type: functional, organism-based; settings: time 42.0 day
# Rattus norvegicus [14] = experiment: Anti-parkinson activity in rotenone-induced neurodegeneration in male Wistar rat model assessed as decrease count of pyknotic cells in cortex at 5 mg/kg, ip pretreated with compound every alternative days followed by rotenone addition and measured after 42 days by H and E staining based analysis; type: functional, organism-based; settings: time 42.0 day
# Rattus norvegicus [15] = experiment: Anti-parkinson activity in rotenone-induced neurodegeneration in male Wistar rat model assessed as decrease count of pyknotic cells in striatum at 5 mg/kg, ip pretreated with compound every alternative days followed by rotenone addition and measured after 42 days by H and E staining based analysis; type: functional, organism-based; settings: time 42.0 day
# Rattus norvegicus [16] = experiment: Anti-parkinson activity in rotenone-induced neurodegeneration in male Wistar rat model assessed as decrease neuronal damage in substantia nigra at 5 mg/kg, ip pretreated with compound every alternative days followed by rotenone addition and measured after 42 days by Nissl staining based analysis; type: functional, organism-based; settings: time 42.0 day
# Rattus norvegicus [17] = experiment: Anti-parkinson activity in rotenone-induced neurodegeneration in male Wistar rat model assessed as reduction in pyknotic neurons in substantia nigra at 5 mg/kg, ip pretreated with compound every alternative days followed by rotenone addition and measured after 42 days by Nissl staining based analysis; type: functional, organism-based; settings: time 42.0 day
# Rattus norvegicus [18] = experiment: Anti-parkinson activity in rotenone-induced neurodegeneration in male Wistar rat model assessed as reduction in necrosis in striatum at 5 mg/kg, ip pretreated with compound every alternative days followed by rotenone addition and measured after 42 days by Nissl staining based analysis; type: functional, organism-based; settings: time 42.0 day
# Rattus norvegicus [19] = experiment: Anti-parkinson activity in rotenone-induced male Wistar rat assessed as increase in TH positive fiber density in striatum at 5 mg/kg, ip pretreated with compound every alternative days followed by rotenone addition and measured after 42 days by immunofluorescence staining based analysis; type: functional, organism-based; settings: time 42.0 day
# Rattus norvegicus [20] = experiment: In vivo inhibition of MAPK signaling pathway in rotenone-induced parkinson disease male Wistar rat model assessed as reduction in ERK1/2 phosphorylation level in substantia nigra at 5 mg/kg, ip pretreated with compound every alternative days followed by rotenone addition and measured after 42 days by Western blotting analysis; type: functional, organism-based; settings: time 42.0 day
# Rattus norvegicus [21] = experiment: In vivo inhibition of MAPK signaling pathway in rotenone-induced parkinson disease male Wistar rat model assessed as reduction in ERK1/2 phosphorylation level in striatum at 5 mg/kg, ip pretreated with compound every alternative days followed by rotenone addition and measured after 42 days by Western blotting analysis; type: functional, organism-based; settings: time 42.0 day
# Rattus norvegicus [22] = experiment: In vivo inhibition of MAPK signaling pathway in rotenone-induced parkinson disease male Wistar rat model assessed as reduction in P-38 phosphorylation level in substantia nigra at 5 mg/kg, ip pretreated with compound every alternative days followed by rotenone addition and measured after 42 days by Western blotting analysis; type: functional, organism-based; settings: time 42.0 day
# Rattus norvegicus [23] = experiment: Anti-inflammatory activity in rotenone-induced male Wistar rat model assessed as reduction in IL-1beta expression level in striatum at 5 mg/kg, ip pretreated with compound every alternative days followed by rotenone addition and measured after 42 days by ELISA; type: functional, organism-based; settings: time 42.0 day
# Rattus norvegicus [24] = experiment: Anti-inflammatory activity in rotenone-induced male Wistar rat model assessed as reduction in PGE2 expression level in striatum at 5 mg/kg, ip pretreated with compound every alternative days followed by rotenone addition and measured after 42 days by ELISA; type: functional, organism-based; settings: time 42.0 day
# Rattus norvegicus [25] = experiment: Anti-inflammatory activity in rotenone-induced male Wistar rat model assessed as reduction in phosphorylated NF-kappaB P65 protein expression level in striatum at 5 mg/kg, ip pretreated with compound every alternative days followed by rotenone addition and measured after 42 days by ELISA; type: functional, organism-based; settings: time 42.0 day
# Rattus norvegicus [26] = experiment: Anti-inflammatory activity in rotenone-induced male Wistar rat model assessed as reduction in phosphorylated NF-kappaB P65 protein expression level in substantia nigra at 5 mg/kg, ip pretreated with compound every alternative days followed by rotenone addition and measured after 42 days by ELISA; type: functional, organism-based; settings: time 42.0 day
# [27] = Toxicity in male Wistar rat assessed as change in cellular structure of heart at 1 to 10 mg/kg by H and E staining based analysis; type: organism-based; settings: in vivo, dose 1-10 mg/kg
# [28] = Toxicity in male Wistar rat assessed as change in cellular structure of kidney at 1 to 10 mg/kg by H and E staining based analysis; type: organism-based; settings: in vivo, dose 1-10 mg/kg
smiles,measurement,setting,value
COc1cc(CCC(=O)N2CCCCC2)cc(OC)c1OC(=O)c1ccccn1,Activity,SH-SY5Y [1],Active
same,Activity,SH-SY5Y [2],Active
same,Activity,SH-SY5Y [3],Active
same,Activity,SH-SY5Y [4],Active
same,Activity,Rattus norvegicus [5],Active
same,Activity,Rattus norvegicus [6],Active
same,Activity,Rattus norvegicus [7],Active
same,Activity,Rattus norvegicus [8],Active
same,Activity,Rattus norvegicus [9],Active
same,Activity,Rattus norvegicus [10],Active
same,Activity,Rattus norvegicus [11],Active
same,Activity,Rattus norvegicus [12],Active
same,Activity,Rattus norvegicus [13],Active
same,Activity,Rattus norvegicus [14],Active
same,Activity,Rattus norvegicus [15],Active
same,Activity,Rattus norvegicus [16],Active
same,Activity,Rattus norvegicus [17],Active
same,Activity,Rattus norvegicus [18],Active
same,Activity,Rattus norvegicus [19],Active
same,inhibition,Rattus norvegicus [20],Active
same,inhibition,Rattus norvegicus [21],Active
same,inhibition,Rattus norvegicus [22],Active
same,Activity,Rattus norvegicus [23],Active
same,Activity,Rattus norvegicus [24],Active
same,Activity,Rattus norvegicus [25],Active
same,Activity,Rattus norvegicus [26],Active
same,Activity,[27],Non-toxic
same,Activity,[28],Non-toxic
